# Experiments:
# [1] = system: GM3 expression on the cell surface, C32 human melanoma cells; assay: cell based phenotypic assay, cell surface GM3 by antibody mediated immunofluorescence, C32 (GM3 C32 IC50); conditions: Homo sapiens, C32 human melanoma cells; 50% inhibition of GM3 expression on the cell surface; read-out: GM3 C32 IC50
# Summary of the method: (§1)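 B16 mouse and C32 human melanoma cells; cell-surface GM3 measured by antibody-mediated immunofluorescence, giving IC50.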
# [2] = system: GM3 expression on the cell surface, B16 mouse melanoma cells; assay: cell based phenotypic assay, cell surface GM3 by antibody mediated immunofluorescence, B16 (GM3 B16 IC50); conditions: Mus musculus, B16 mouse melanoma cells; 50% inhibition of GM3 expression on the cell surface; read-out: GM3 B16 IC50
# Summary of the method: as §1
# C32 human melanoma cells = assay: cell viability in the C32 cell-based assay (Viability, C32 IC50); conditions: Homo sapiens, C32, C32 cells; concentration causing 50% cell death; values greater than 10 represent a lack of cell death; read-out: Viability, C32 IC50
# Summary of the method: (§2)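 Both lines undergo the phenotypic GM3 assay, and viability is recorded from that same cell-based run.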
# B16 mouse melanoma cells = assay: cell viability in the B16 cell-based assay (Viability, B16 IC50); conditions: Mus musculus, B16, B16 cells; concentration causing 50% cell death; values greater than 10 represent a lack of cell death; read-out: Viability, B16 IC50
# Summary of the method: as §2
# [3] = biological target: T1, glucosylceramide synthase (Homo sapiens, UniProt Q16739); assay: microsomal assay measuring conversion of ceramide to glucosylceramide by HPLC (GCS IC50); assay type: biochemical; conditions: concentration causing 50% inhibition of glucosylceramide synthase activity
# T1 construct: Microsomes were isolated from A375 human melanoma cells; endogenous in cells; host or cells: A375 human melanoma cells (microsomal fraction, 100,000 g pellet)
# T1 sequence (Q16739 1-394): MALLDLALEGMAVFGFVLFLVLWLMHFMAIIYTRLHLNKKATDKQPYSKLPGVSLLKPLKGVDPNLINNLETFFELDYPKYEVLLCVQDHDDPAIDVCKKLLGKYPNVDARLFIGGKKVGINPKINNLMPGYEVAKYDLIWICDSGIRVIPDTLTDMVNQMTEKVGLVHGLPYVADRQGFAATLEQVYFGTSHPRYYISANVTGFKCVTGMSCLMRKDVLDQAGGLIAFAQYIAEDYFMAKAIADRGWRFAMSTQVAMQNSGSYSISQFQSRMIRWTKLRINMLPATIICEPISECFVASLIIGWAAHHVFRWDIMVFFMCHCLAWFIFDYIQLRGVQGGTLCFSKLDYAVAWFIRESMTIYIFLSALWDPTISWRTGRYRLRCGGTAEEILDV
# Summary of the method: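 Microsomal preparation assayed for glucosylceramide synthase by direct HPLC measurement of ceramide conversion to glucosylceramide. GCS IC50 is the compound concentration giving 50% inhibition of enzyme activity.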
Structure (SMILES),IC50 [1] [nM],IC50 [2] [nM],IC50 (C32 human melanoma cells) [nM],IC50 (B16 mouse melanoma cells) [nM],IC50 [3] [nM]
"COCCCOc1ccc(-c2nc(N3CC(C(=O)NC4(C)CCN5CCC4CC5)C3)ncc2F)cc1 (stereo not drawn) [Example 111, 1-(5-Fluoro-4-(4-(3-methoxypropoxy)phenyl)pyrimidin-2-yl)-N-(4-methyl-1-azabicyclo[3.2.2]nonan-4-yl)azetidine-3-carboxamide]",0.19,119,1000,3650,2
"CC1(NC(=O)C2CN(c3ncc(F)c(-c4ccc(F)cc4)n3)C2)CCN2CCC1CC2 (stereo not drawn) [Example 112, 1-(5-Fluoro-4-(4-fluorophenyl)pyrimidin-2-yl)-N-(4-methyl-1-azabicyclo[3.2.2]nonan-4-yl)azetidine-3-carboxamide]",0.238,122,316,7240,7.37
"CC1(NC(=O)C2CN(c3nccc(-c4ccc(F)cc4)n3)C2)CCN2CCC1CC2 (stereo not drawn) [Example 113, 1-(4-(4-Fluorophenyl)pyrimidin-2-yl)-N-(4-methyl-1-azabicyclo[3.2.2]nonan-4-yl)azetidine-3-carboxamide]",0.884,546,316,≥ 10000,8.31
"CC1(NC(=O)C2CN(c3cccc(-c4ccc(F)cc4)c3)C2)CCN2CCC1CC2 (stereo not drawn) [Example 114, 1-(4′-Fluoro-[1,1′-biphenyl]-3-yl)-N-(4-methyl-1-azabicyclo[3.2.2]nonan-4-yl)azetidine-3-carboxamide]",11.1,272,1000,3460,51
"CC1(NC(=O)C2CCN(c3nccc(Oc4ccc(F)cc4)n3)CC2)CCN2CCC1CC2 (stereo not drawn) [Example 115, 1-(4-(4-Fluorophenoxy)pyrimidin-2-yl)-N-(4-methyl-1-azabicyclo[3.2.2]nonan-4-yl)piperidine-4-carboxamide]",0.14,8.94,46.4,9300,2.45
"CC1(NC(=O)C2(F)CCN(c3nccc(Oc4ccc(F)cc4)n3)CC2)CCN2CCC1CC2 (stereo not drawn) [Example 116, 4-Fluoro-1-(4-(4-fluorophenoxy)pyrimidin-2-yl)-N-(4-methyl-1-azabicyclo[3.2.2]nonan-4-yl)piperidine-4-carboxamide]",0.155,15.9,100,5720,1.43
"CC1(NC(=O)C2(F)CCN(c3ncnc(Oc4ccc(F)cc4)n3)CC2)CCN2CCC1CC2 (stereo not drawn) [Example 117, 4-Fluoro-1-(4-(4-fluorophenoxy)-1,3,5-triazin-2-yl)-N-(4-methyl-1-azabicyclo[3.2.2]nonan-4-yl)piperidine-4-carboxamide]",9.05,88.4,1000,≥ 10000,168
"COCCOc1ccc(Oc2nc(N3CCC(F)(C(=O)NC4(C)CN5CCC4CC5)CC3)ncc2F)cc1 (stereo not drawn) [Example 118, 4-Fluoro-1-(5-fluoro-4-(4-(2-methoxyethoxy)phenoxy)pyrimidin-2-yl)-N-(3-methylquinuclidin-3-yl)piperidine-4-carboxamide]",1.16,63.4,1000,4640,2.54
"CC1(NC(=O)C2(F)CCN(c3nccc(Oc4ccc(C#N)cc4)n3)CC2)CN2CCC1CC2 (stereo not drawn) [Example 119, 1-(4-(4-Cyanophenoxy)pyrimidin-2-yl)-4-fluoro-N-(3-methylquinuclidin-3-yl)piperidine-4-carboxamide]",0.476,54.4,316,≥ 10000,6.71
"CC1(NC(=O)C2(F)CCN(c3nccc(Oc4ccc(C#N)cc4)n3)CC2)CCN2CCC1CC2 (stereo not drawn) [Example 120, 1-(4-(4-Cyanophenoxy)pyrimidin-2-yl)-4-fluoro-N-(4-methyl-1-azabicyclo[3.2.2]nonan-4-yl)piperidine-4-carboxamide]",0.332,18.8,316,≥ 10000,4.12
"CC1(NC(=O)C2(F)CCN(c3ncc(C#N)c(Oc4ccc(F)cc4)n3)CC2)CN2CCC1CC2 (stereo not drawn) [Example 122, 1-(5-Cyano-4-(4-fluorophenoxy)pyrimidin-2-yl)-4-fluoro-N-(3-methylquinuclidin-3-yl)piperidine-4-carboxamide]",0.639,112,316,≥ 10000,4.41
"CC1(NC(=O)C2(F)CCN(c3nccc(OC4CCOCC4)n3)CC2)CCN2CCC1CC2 (stereo not drawn) [Example 123, 4-Fluoro-N-(4-methyl-1-azabicyclo[3.2.2]nonan-4-yl)-1-(4-((tetrahydro-2H-pyran-4-yl)oxy)pyrimidin-2-yl)piperidine-4-carboxamide]",2.26,226,1000,≥ 10000,42.3
"CC1(NC(=O)C2(F)CCN(c3nccc(OCc4ccc(F)cc4)n3)CC2)CCN2CCC1CC2 (stereo not drawn) [Example 124, 4-Fluoro-1-(4-((4-fluorobenzyl)oxy)pyrimidin-2-yl)-N-(4-methyl-1-azabicyclo[3.2.2]nonan-4-yl)piperidine-4-carboxamide]",0.0849,17.8,100,3420,0.553
"CC1(NC(=O)C2(F)CCN(c3nccc(OCc4ccc(F)cc4)n3)CC2)CN2CCC1CC2 (stereo not drawn) [Example 125, 4-Fluoro-1-(4-((4-fluorobenzyl)oxy)pyrimidin-2-yl)-N-(3-methylquinuclidin-3-yl)piperidine-4-carboxamide]",0.0509,17.7,158,4290,0.643
"CC1(NC(=O)C2(F)CCN(c3cncc(Oc4ccc(F)cc4)n3)CC2)CCN2CCC1CC2 (stereo not drawn) [Example 126, 4-Fluoro-1-(6-(4-fluorophenoxy)pyrazin-2-yl)-N-(4-methyl-1-azabicyclo[3.2.2]nonan-4-yl)piperidine-4-carboxamide]",0.726,36,1000,6260,1.57
"CC1(NC(=O)C2(F)CCN(c3cncc(Oc4ccc(F)cc4)c3)CC2)CCN2CCC1CC2 (stereo not drawn) [Example 127, 4-Fluoro-1-(5-(4-fluorophenoxy)pyridin-3-yl)-N-(4-methyl-1-azabicyclo[3.2.2]nonan-4-yl)piperidine-4-carboxamide]",0.569,106,316,6980,2.27
"CC1(NC(=O)C2(F)CCN(c3ncnc(OCc4ccc(F)cc4)n3)CC2)CCN2CCC1CC2 (stereo not drawn) [Example 128, 4-Fluoro-1-(4-((4-fluorobenzyl)oxy)-1,3,5-triazin-2-yl)-N-(4-methyl-1-azabicyclo[3.2.2]nonan-4-yl)piperidine-4-carboxamide]",3.4,654,1000,≥ 10000,19.8
"CC1(NC(=O)C2(F)CCN(c3ncc(Oc4ccc(F)cc4)cn3)CC2)CN2CCC1CC2 (stereo not drawn) [Example 129, 4-Fluoro-1-(5-(4-fluorophenoxy)pyrimidin-2-yl)-N-(3-methylquinuclidin-3-yl)piperidine-4-carboxamide]",0.38,97.8,316,8260,4.27
"CC1(NC(=O)C2CCN(c3ncc(Oc4ccc(F)cc4)cn3)CC2)CCN2CCC1CC2 (stereo not drawn) [Example 130, 1-(5-(4-Fluorophenoxy)pyrimidin-2-yl)-N-(4-methyl-1-azabicyclo[3.2.2]nonan-4-yl)piperidine-4-carboxamide]",0.156,16.9,316,5670,0.889
"CC1(NC(=O)C2(F)CCN(c3ncc(OCc4ccc(F)cc4)cn3)CC2)CCN2CCC1CC2 (stereo not drawn) [Example 132, 4-Fluoro-1-(5-((4-fluorobenzyl)oxy)pyrimidin-2-yl)-N-(4-methyl-1-azabicyclo[3.2.2]nonan-4-yl)piperidine-4-carboxamide]",2.65,115,1000,4590,10.7
"CC1(NC(=O)C2(F)CCN(c3cnc(Oc4ccc(F)cc4)cn3)CC2)CN2CCC1CC2 (stereo not drawn) [Example 133, 4-Fluoro-1-(5-(4-fluorophenoxy)pyrazin-2-yl)-N-(3-methylquinuclidin-3-yl)piperidine-4-carboxamide]",4.83,467,1000,≥ 10000,45.9
